From patent US20260242352A1, “INHIBITION OF SHIP1 AS A THERAPEUTIC STRATEGY FOR THE TREATMENT OF ALZHEIMER'S DISEASE” (The Trustees of Indiana University, priority 2022, published 2026) come the findings set out here.

Where only a bound is given, the exact number is not on record here.

What all share (format): cell-based
Assay [1] concerns the target T1, HiBit-labeled full length SHIP1 protein (Homo sapiens, UniProt Q92835).
T1 construct: thermal stability of a HiBit-labeled full length SHIP1 protein in intact cells; expressed in transfected cells; host or cells: HMC3 (stably transfected)
T1 sequence (Q92835 1-1189): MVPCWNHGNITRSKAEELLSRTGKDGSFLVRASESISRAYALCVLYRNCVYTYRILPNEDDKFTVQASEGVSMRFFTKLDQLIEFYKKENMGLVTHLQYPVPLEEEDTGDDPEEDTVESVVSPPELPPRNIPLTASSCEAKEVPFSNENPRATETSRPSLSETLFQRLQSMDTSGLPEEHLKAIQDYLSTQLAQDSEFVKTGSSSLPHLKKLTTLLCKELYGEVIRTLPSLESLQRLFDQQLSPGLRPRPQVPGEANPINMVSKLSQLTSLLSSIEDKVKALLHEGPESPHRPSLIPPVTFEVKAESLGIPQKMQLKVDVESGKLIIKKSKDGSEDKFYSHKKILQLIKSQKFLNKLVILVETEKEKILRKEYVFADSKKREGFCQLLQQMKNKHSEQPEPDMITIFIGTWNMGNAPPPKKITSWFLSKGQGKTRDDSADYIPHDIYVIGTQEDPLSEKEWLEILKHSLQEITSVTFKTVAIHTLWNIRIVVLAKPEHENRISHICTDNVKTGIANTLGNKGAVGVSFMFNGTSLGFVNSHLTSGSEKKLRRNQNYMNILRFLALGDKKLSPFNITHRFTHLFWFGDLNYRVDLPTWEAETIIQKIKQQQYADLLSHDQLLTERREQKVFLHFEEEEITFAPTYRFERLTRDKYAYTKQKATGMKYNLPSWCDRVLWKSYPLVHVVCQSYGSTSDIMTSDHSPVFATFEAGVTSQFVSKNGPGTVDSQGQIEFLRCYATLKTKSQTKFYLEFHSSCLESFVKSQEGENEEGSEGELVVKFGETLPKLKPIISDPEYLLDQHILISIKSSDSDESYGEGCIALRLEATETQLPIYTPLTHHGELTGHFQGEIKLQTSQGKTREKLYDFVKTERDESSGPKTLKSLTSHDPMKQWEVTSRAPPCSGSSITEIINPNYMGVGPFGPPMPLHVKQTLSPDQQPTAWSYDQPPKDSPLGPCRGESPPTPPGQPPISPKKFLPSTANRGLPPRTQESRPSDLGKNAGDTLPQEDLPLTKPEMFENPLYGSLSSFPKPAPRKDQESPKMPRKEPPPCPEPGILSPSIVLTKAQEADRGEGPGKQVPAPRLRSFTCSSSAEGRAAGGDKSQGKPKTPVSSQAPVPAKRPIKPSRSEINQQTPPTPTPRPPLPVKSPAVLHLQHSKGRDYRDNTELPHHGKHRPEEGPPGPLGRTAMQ
Nature of the assay: Cellular thermal shift assay (SplitLuc CETSA), compound dose response. The note with it: HMC3/HiBit-INPP5D cells, 60 min; for CETSA Min Inhibition (%): heated at 44.2° C.; for AC50: heated at 44.2° C. for 3 min, 8-point curve from 80 uM or 100 uM. The method, then: (§1) Cellular thermal shift assay (CETSA). […] This assay was run in the following two formats with HMC3/HiBit-INPP5D stably transfected cells.
2. Compound dose response: run at target Tm (44.2° C. for SHIP1) with compound dosing from 80 uM or 100 uM with 1:3 serial dilutions to generate an 8 point curve. Cells were treated for 60 min before being heated at target Tm for 3 min before luminescence detection. An AC50 was calculated using a four-parameter logistic curve regression model with change at highest concentration noted when difference from control >3SD, otherwise AC50 marked as “nc” for not calculated.
(§2) See Martinez et al. (2018) Sci Rep 8: p. 9472; Oh-Hashi et al. (2017) Biochem Biophys Rep 12: pp. 40-45. This assay was run in the following two formats with HMC3/HiBit-INPP5D stably transfected cells.
Compound dose response: run at target Tm (44.2° C. for SHIP1) with compound dosing from 80 uM or 100 uM with 1:3 serial dilutions to generate an 8-point curve. Cells were treated for 60 min before being heated at target Tm for 3 min before luminescence detection. The concentration that induced a half-maximum response (AC50) was calculated using a four-parameter logistic curve regression model with change at highest concentration noted when difference from control >3SD.
In general terms: With HiBiT, luminescence reflects the tagged protein that the partner subunit can reach.

In assay [2] the target is T1, HiBit-labeled full length SHIP1 protein. Nature of the assay: Cellular thermal shift assay (SplitLuc CETSA), thermal shift format. On the set-up: key: Y = ΔTm difference of 40 μM compound treated cells from control is Tm > 3SD; N: otherwise negative. The note with it: 40 μM compound for 60 min, HMC3/HiBit-INPP5D cells, 38-52° C. gradient; target engagement positive/negative. The method, then:
as §1
1. Thermal shift: cells were treated with 40 μM compound for 60 min, then heated with a temperature gradient covering 38-52° C. for 3 min before luminescence detection. Mean and standard deviation of control Tm were determined to generate a “Mean+3SD” ΔTm, which was used as threshold to determine a significant ΔTm of compound from control. When the difference of ΔTm of compound treated cells from control Tm>3SD, the compound was considered positive for target engagement, otherwise negative. SD=average standard deviation.
as §2
Thermal shift: cells were treated with 40 μM compound for 60 min, then heated with a temperature gradient covering 38-52° C. for 3 min before luminescence detection. Mean and standard deviation of control Tm were determined to generate a “Mean+3SD” ΔTm, which was used as threshold to determine a significant ΔTm of compound from control. When the difference of ΔTm of compound treated cells from control Tm>3SD, the compound was considered positive for target engagement, otherwise negative. SD=average standard deviation.

The test system of assay [3] is phosphorylated and total AKT (pAKT/tAKT) in THP1 cells. Nature of the assay: PhosphoAKT assay. The conditions noted are these: Homo sapiens, THP-1, 1.5 h, 90 minutes, pAKT (S473)/tAKT ratio, (n) in cell. How it is done:
PhosphoAKT assay. THP1 cells were treated with inhibitors for 90 minutes and then the levels of phosphorylated and total AKT (pAKT/tAKT) were detected using the Perkin Elmer Alpha SureFire Ultra Multiplex PhosphoAKT (S473) kit according to the manufacturer's directions. IC50 values were calculated by fitting the ratio of pATK/tAKT versus inhibitor concentration.
THP1 cells were treated with inhibitors for 90 minutes and then the levels of phosphorylated and total AKT (pAKT/tAKT) were detected using the Perkin Elmer Alpha SureFire Ultra Multiplex PhosphoAKT (S473) kit according to the manufacturer's directions. IC50 values were calculated by fitting the ratio of pATK/tAKT versus inhibitor concentration.

For orientation: AC50 means the concentration giving half of the maximal activity seen. The term IC50 denotes the concentration at which inhibition is half-maximal. Consider `Clc1ccccc1COc1cncc(-c2ccn(C3CCNCC3)n2)c1` [Compound 26, 3-((2-chlorobenzyl)oxy)-5-(1-(piperidin-4-yl)-1H-pyrazol-3-yl)pyridine], for which, in assay [1], the “CETSA Min Inhibition (%)” value is given as 14.6% and the AC50 stood at 87.4 µM. In addition, the “CETSA SP” value in assay [2] is reported as “Y”. Moreover, the IC50 in assay [3] worked out at 7.72 µM.
`Clc1ccccc1COc1cncc(-n2ccc(C3CCNCC3)n2)c1` [Compound 27, 3-((2-chlorobenzyl)oxy)-5-(3-(piperidin-4-yl)-1H-pyrazol-1-yl)pyridine]: in assay [1], the “CETSA Min Inhibition (%)” value is 10.1% and the AC50 is 57.1 µM. In assay [2], the “CETSA SP” value is “Y”. Besides, the IC50 in assay [3] is > 60 µM.
